The molecules below were run on glucocorticoid receptor function (assay: one or more of the above assays (GR binding and glucocorticoid receptor cell assays: aromatase, IL-6, TAT, MMTV-Luc, IL-8, ICAM-Luc)). Conditions: assay not specified per compound.
Assay type: cell-based

Row | SMILES | activity as agonists of the glucocorticoid receptor function in one or more of the above assays
1 | CC(C)Oc1cc2cc(CC(O)(CC(C)(C)c3ccccc3)C(F)(F)F)[nH]c2cn1 (stereo not drawn) [1,1,1-Trifluoro-2-(5-isopropoxy-1H-pyrrolo[2,3-c]pyridin-2-ylmethyl)-4-methyl-4-phenylpentan-2-ol] | potent agonists
2 | COc1ccc(-c2cccnc2)cc1C(C)(C)CC(O)(Cn1ccc2c1CCCC2=O)C(F)(F)F (stereo not drawn) [1-[2-Hydroxy-4-(2-methoxy-5-pyridin-3-ylphenyl)-4-methyl-2-trifluoromethylpentyl]-1,5,6,7-tetrahydroindol-4-one] | agonists
3 | CC(C)(CC(O)(Cc1cc2ccncc2[nH]1)C(F)(F)F)c1cccc(C2OCCCO2)c1 (stereo not drawn) [4-(3-[1,3]Dioxan-2-ylphenyl)-1,1,1-trifluoro-4-methyl-2-(1H-pyrrolo[2,3-c]pyridin-2-ylmethyl)pentan-2-ol] | potent agonists
4 | CC(C)(CC(O)(Cc1cc2cc(N3CCOCC3)ncc2[nH]1)C(F)(F)F)c1cc(-c2ccccc2C#N)ccc1O (stereo not drawn) [4′-Hydroxy-3′-[4,4,4-trifluoro-3-hydroxy-1,1-dimethyl-3-(5-morpholin-4-yl-1H-pyrrolo[2,3-c]pyridin-2-ylmethyl)butyl]biphenyl-2-carbonitrile] | potent agonists
5 | COc1ccc(F)cc1C(C)(C)CC(O)(Cc1cc2cc(N(C)C)ncc2[nH]1)C(F)(F)F (stereo not drawn) [2-(5-Dimethylamino-1H-pyrrolo[2,3-c]pyridin-2-ylmethyl)-1,1,1-trifluoro-4-(5-fluoro-2-methoxyphenyl)-4-methylpentan-2-ol] | potent agonists
6 | CC(C)(CC(O)(Cc1cc2ccc(C#N)cc2[nH]1)C(F)(F)F)c1cc(S(C)(=O)=O)cc2c1OCC2 (stereo not drawn) [2-[2-Hydroxy-4-(5-methanesulfonyl-2,3-dihydrobenzofuran-7-yl)-4-methyl-2-trifluoromethylpentyl]-1H-indole-6-carbonitrile] | potent agonists
7 | Cc1ccc(F)cc1C(C)(C)CC(O)(Cc1cc2c(C)nccc2[nH]1)C(F)(F)F (stereo not drawn) [1,1,1-Trifluoro-4-(5-fluoro-2-methylphenyl)-4-methyl-2-(4-methyl-1H-pyrrolo[3,2-c]pyridin-2-ylmethyl)pentan-2-ol] | potent agonists
8 | Cc1ccc(F)cc1C(C)(C)CC(O)(Cc1cc2[nH]c(=O)ccc2[nH]1)C(F)(F)F (stereo not drawn) [2-[4-(5-Fluoro-2-methylphenyl)-2-hydroxy-4-methyl-2-trifluoromethylpentyl]-1,4-dihydropyrrolo[3,2-b]pyridin-5-one] | potent agonists
9 | COc1ccc(F)cc1C(C)(C)CC(O)(Cc1cc2c(C#N)cccc2[nH]1)C(F)(F)F (stereo not drawn) [2-[4-(5-Fluoro-2-methoxyphenyl)-2-hydroxy-4-methyl-2-trifluoromethylpentyl]-1H-indole-4-carbonitrile] | potent agonists
10 | CCN(CC)c1cc2cc(CC(O)(CC(C)(C)c3cc(F)ccc3C)C(F)(F)F)[nH]c2cn1 (stereo not drawn) [2-(5-Diethylamino-1H-pyrrolo[2,3-c]pyridin-2-ylmethyl)-1,1,1-trifluoro-4-(5-fluoro-2-methylphenyl)-4-methylpentan-2-ol] | potent agonists
11 | Cc1ccc(F)cc1C(C)(C)CC(O)(Cc1cc2nnccc2[nH]1)C(F)(F)F (stereo not drawn) [1,1,1-Trifluoro-4-(5-fluoro-2-methylphenyl)4-methyl-2-(5H-pyrrolo[3,2-c]pyridazin-6-ylmethyl)pentan-2-ol] | potent agonists
12 | COc1cc(F)ccc1C(C)(C)CC(O)(Cc1cc2cc(N(C)C)ncc2[nH]1)C(F)(F)F (stereo not drawn) [2-(5-Dimethylamino-1H-pyrrolo[2,3-c]pyridin-2-ylmethyl)-1,1,1-trifluoro-4-(4-fluoro-2-methoxyphenyl)-4-methylpentan-2-ol] | potent agonists
13 | Cc1nc(C#N)cc2[nH]c(CC(O)(CC(C)(C)c3cc(S(C)(=O)=O)cc4c3OCC4)C(F)(F)F)cc12 (stereo not drawn) [2-[2-Hydroxy-4-(5-methanesulfonyl-2,3-dihydrobenzofuran-7-yl)-4-methyl-2-trifluoromethylpentyl]-4-methyl-1H-pyrrolo[3,2-c]pyridine-6-carbonitrile] | potent agonists
14 | COc1ccc(-c2cccnc2)cc1C(C)(C)CC(O)(Cc1[nH]c2cnccc2c1C)C(F)(F)F (stereo not drawn) [1,1,1-Trifluoro-4-(2-methoxy-5-pyridin-3-ylphenyl)-4-methyl-2-(3-methyl-1H-pyrrolo[2,3-c]pyridin-2-ylmethyl)pentan-2-ol] | potent agonists
15 | COc1ccc(Br)cc1C(C)(C)CC(O)(Cc1cc2cc(N3CCCCC3)ncc2[nH]1)C(F)(F)F (stereo not drawn) [4-(5-Bromo-2-methoxyphenyl)-1,1,1-trifluoro-4-methyl-2-(5-piperidin-1-yl-1H-pyrrolo[2,3-c]pyridin-2-ylmethyl)pentan-2-ol] | potent agonists
16 | COc1ccc(Br)cc1C(C)(C)CC(O)(Cc1cc2cc(OC(C)C)ncc2[nH]1)C(F)(F)F (stereo not drawn) [4-(5-Bromo-2-methoxyphenyl)-1,1,1-trifluoro-2-(5-isopropoxy-1H-pyrrolo[2,3-c]pyridin-2-ylmethyl)-4-methylpentan-2-ol] | potent agonists
17 | CSc1cc2c(c(C(C)(C)CC(O)(Cc3cc4cc(Cl)ncc4[nH]3)C(F)(F)F)c1)OCC2 (stereo not drawn) [2-(5-Chloro-1H-pyrrolo[2,3-c]pyridin-2-ylmethyl)-1,1,1-trifluoro-4-methyl-4-(5-methylsulfanyl-2,3-dihydrobenzofuran-7-yl)pentan-2-ol] | potent agonists
18 | CC(C)(CC(O)(Cc1cc2ccncc2[nH]1)C(F)(F)F)c1cc(-c2ccsc2)ccc1O (stereo not drawn) [4-Thiophen-3-yl-2-[4,4,4-trifluoro-3-hydroxy-1,1-dimethyl-3-(1H-pyrrolo[2,3-c]pyridin-2-ylmethyl)butyl]phenol] | potent agonists
19 | Cc1nccc2[nH]c(CC(O)(CC(C)(C)c3cc(-c4ccsc4)ccc3O)C(F)(F)F)cc12 (stereo not drawn) [4-Thiophen-3-yl-2-[4,4,4-trifluoro-3-hydroxy-1,1-dimethyl-3-(4-methyl-1H-pyrrolo[3,2-c]pyridin-2-ylmethyl)butyl]phenol] | potent agonists
20 | CC(C)(CC(O)(Cc1cc2cnccc2[nH]1)C(F)(F)F)c1cccc(-c2cccnc2)c1 (stereo not drawn) [1,1,1-Trifluoro-4-methyl-4-(3-pyridin-3-ylphenyl)-2-(1H-pyrrolo[3,2-c]pyridin-2-ylmethyl)pentan-2-ol] | potent agonists
21 | CC(C)(CC(O)(Cc1cc2ccncc2[nH]1)C(F)(F)F)c1cc(-c2ccccc2)ccc1O (stereo not drawn) [3-[4,4,4-Trifluoro-3-hydroxy-1,1-dimethyl-3-(1H-pyrrolo[2,3-c]pyridin-2-ylmethyl)butyl]biphenyl-4-ol] | potent agonists
